According to the supplement of paper PMC10307832:

Tests used:
Experiment in all cases: relative viability (nuclei count vs DMSO), 5 days (fraction); higher = more cells survive
[1] = compound: COc1cc2ncn(-c3cc(OCc4ccccc4C(F)(F)F)c(C(N)=O)s3)c2cc1OC + CS(=O)(=O)CCNCc1ccc(-c2ccc3ncnc(Nc4ccc(OCc5cccc(F)c5)c(Cl)c4)c3c2)o1 [Lapatinib] (partner 2 µM)
Outline: (§1)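 Lung cancer cell lines in 1536-well plates got either a single drug or a fixed anchor-drug dose together with five library-drug doses (not always all listed) in √10 steps, by pin tool, on the day after seeding. Nuclei were counted after 5 days, and relative viability is the treated-to-vehicle ratio of nuclei counts. Values are medians of duplicate plates.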

[2] = compound: COc1cc2ncn(-c3cc(OCc4ccccc4C(F)(F)F)c(C(N)=O)s3)c2cc1OC + C[C@@H](Oc1cc(-c2cnn(C3CCNCC3)c2)cnc1N)c1c(Cl)ccc(F)c1Cl [Crizotinib] (partner 1 µM)
Outline: as §1

[3] = compound: COc1cc2ncn(-c3cc(OCc4ccccc4C(F)(F)F)c(C(N)=O)s3)c2cc1OC + Cc1nc(Nc2ncc(C(=O)Nc3c(C)cccc3Cl)s2)cc(N2CCN(CCO)CC2)n1 [Dasatinib] (partner 0.075 µM)
Outline: as §1

[4] = compound: COc1cc2ncn(-c3cc(OCc4ccccc4C(F)(F)F)c(C(N)=O)s3)c2cc1OC + Nc1nc2[nH]cc(CCc3ccc(C(=O)N[C@@H](CCC(=O)O)C(=O)O)cc3)c2c(=O)[nH]1 [Pemetrexed] (partner 0.2 µM)
Outline: as §1

Cell Line | relative viability ([1]; first compound 0.05 µM) | relative viability ([1]; first compound 0.1581 µM) | relative viability ([1]; first compound 0.5 µM) | relative viability ([1]; first compound 1.581 µM) | relative viability ([1]; first compound 5 µM) | relative viability ([2]; first compound 0.05 µM) | relative viability ([2]; first compound 0.1581 µM) | relative viability ([2]; first compound 0.5 µM) | relative viability ([2]; first compound 1.581 µM) | relative viability ([2]; first compound 5 µM) | relative viability ([3]; first compound 0.05 µM) | relative viability ([3]; first compound 0.1581 µM) | relative viability ([3]; first compound 0.5 µM) | relative viability ([3]; first compound 1.581 µM) | relative viability ([3]; first compound 5 µM) | relative viability ([4]; first compound 0.05 µM) | relative viability ([4]; first compound 0.1581 µM) | relative viability ([4]; first compound 0.5 µM) | relative viability ([4]; first compound 1.581 µM) | relative viability ([4]; first compound 5 µM)
HCC-366 | 1.11 | 1.02 | 0.359 | 0.0141 | 0.0131 | 0.788 | 0.545 | 0.117 | 0.013 | 0.0129 | 0.675 | 0.67 | 0.338 | 0.0209 | 0.0192 | 0.166 | 0.155 | 0.0748 | 0.0321 | 0.0197
HOP-62 | 1.01 | 1.08 | 0.829 | 0.233 | 0.121 | 0.765 | 0.935 | 0.824 | 0.206 | 0.101 | 0.653 | 0.694 | 0.597 | 0.15 | 0.114 | 0.261 | 0.302 | 0.265 | 0.123 | 0.0991
NCI-H1944 | 0.972 | 1 | 0.729 | 0.165 | 0.114 | 1.32 | 1.18 | 1.1 | 0.351 | 0.113 | 0.227 | 0.223 | 0.191 | 0.127 | 0.109 | 0.666 | 0.635 | 0.536 | 0.178 | 0.0832
UMC-11 | 0.991 | 0.917 | 0.348 | 0.195 | 0.136 | 0.627 | 0.484 | 0.141 | 0.0823 | 0.102 | 0.533 | 0.399 | 0.168 | 0.18 | 0.133 | 0.619 | 0.599 | 0.201 | 0.191 | 0.201
LU99A | 1 | 0.948 | 0.577 | 0.226 | 0.183 | 0.59 | 0.526 | 0.579 | 0.244 | 0.197 | 0.493 | 0.548 | 0.256 | 0.182 | 0.135 | 0.204 | 0.169 | 0.204 | 0.154 | 0.146
NCI-H650 | 0.903 | 1.2 | 0.531 | 0.171 | 0.247 | 0.714 | 0.684 | 0.4 | 0.15 | 0.289 | 0.468 | 0.429 | 0.32 | 0.166 | 0.261 | 1.01 | 0.923 | 0.768 | 0.261 | 0.458
A-427 | 1.02 | 1.12 | 1 | 0.418 | 0.116 | 0.917 | 0.826 | 0.587 | 0.163 | 0.124 | 0.839 | 0.501 | 0.602 | 0.175 | 0.088 | 1.05 | 1.02 | 0.887 | 0.257 | 0.203
COR-L 105 | 0.373 | 0.365 | 0.277 | 0.255 | 0.292 | 0.978 | 0.831 | 0.658 | 0.215 | 0.264 | 0.337 | 0.33 | 0.273 | 0.22 | 0.19 | 0.924 | 1.24 | 0.909 | 0.409 | 0.418
NCI-H2126 | 0.772 | 0.776 | 0.636 | 0.352 | 0.244 | 1.05 | 1 | 0.849 | 0.419 | 0.264 | 0.584 | 0.638 | 0.463 | 0.248 | 0.221 | 0.75 | 0.655 | 0.498 | 0.288 | 0.251
NCI-H460 | 1.03 | 0.592 | 0.486 | 0.0094 | 0.0099 | 1.14 | 0.899 | 0.0648 | 0.0097 | 0.0254 | 0.593 | 0.636 | 0.283 | 0.0166 | 0.0348 | 0.0574 | 0.0651 | 0.0638 | 0.0225 | 0.0159
SW 1573 | 1.14 | 0.445 | 0.918 | 0.217 | 0.739 | 0.786 | 0.859 | 0.514 | 0.134 | 0.293 | 0.574 | 0.416 | 0.11 | 0.0632 | 0.0788 | 0.839 | 0.742 | 0.594 | 0.149 | 0.136
NCI-H322M | 0.572 | 0.578 | 0.548 | 0.302 | 0.257 | 0.741 | 0.94 | 0.724 | 0.419 | 0.466 | 0.233 | 0.263 | 0.268 | 0.27 | 0.308 | 0.682 | 0.707 | 0.524 | 0.429 | 0.352
EKVX | 0.176 | 0.265 | 0.206 | 0.165 | 0.178 | 1.04 | 1.04 | 0.731 | 0.225 | 0.563 | 0.661 | 0.604 | 0.425 | 0.271 | 0.224 | 0.395 | 0.302 | 0.334 | 0.244 | 0.242
NCI-H1734 | 1.14 | 0.986 | 0.792 | 0.241 | 0.186 | 0.656 | 0.616 | 0.36 | 0.239 | 0.14 | 0.477 | 0.516 | 0.387 | 0.197 | 0.129 | 0.401 | 0.386 | 0.41 | 0.25 | 0.164
NCI-H520 | 1.01 | 0.814 | 0.387 | 0.172 | 0.149 | 0.984 | 0.513 | 0.19 | 0.148 | 0.16 | 0.239 | 0.202 | 0.157 | 0.191 | 0.193 | 0.301 | 0.663 | 0.247 | 0.204 | 0.171
EPLC-272H | 0.976 | 0.867 | 0.527 | 0.111 | 0.0981 | 0.86 | 0.709 | 0.323 | 0.0912 | 0.134 |  | 0.408 | 0.142 | 0.0755 | 0.103 | 0.25 | 0.206 | 0.104 | 0.121 | 0.206
